Measured values from patent US20220324835A1 (Nurix Therapeutics, Inc., priority 2018, published 2022).

How the values were obtained:
Cbl-b [1] = target: T1, Cbl-b (Homo sapiens, UniProt Q13191); assay: Cbl-b inhibition assay (Cbl-b activity assay, FRET, Biological Example 1; 100 mM NaCl, 60 nM Src kinase); format: biochemical; conditions: upper bound stated in text lists; read-out: IC50 values in the Cbl-b inhibition assay of Biological Example 1
Outline: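 Inhibition is read as loss of FRET signal. The signal arises when Src-phosphorylated, N-terminal biotinylated Avi-Cbl-b (captured by streptavidin-terbium) binds UbcH5B carrying covalently linked Bodipy-Fluorescein-tagged ubiquitin.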

T-cell [2] = assay: IL-2 secretion from T-cells co-stimulated with anti-CD3 and anti-CD28 antibody (Biological Example 2); format: cell-based, human; conditions: Homo sapiens, T-cell, fold change over baseline (anti-CD3/anti-CD28 stimulated T-cells without inhibitor), read-out: IL-2 secretion Anti-CD3/Anti-CD28 stimulation; for fold induction at 0.3 µM: 0.3 μM Cbl-b inhibitor; for fold induction at 1 µM: 1 μM Cbl-b inhibitor
Outline: (§1)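 T-cells were stimulated with anti-CD3 antibody alone or with anti-CD28 antibody, in the presence or absence of Cbl-b inhibitor. IL-2 secretion or CD25 surface staining was measured, and values expressed as fold over the uninhibited baseline […].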

T-cell [3] = assay: IL-2 secretion from T-cells stimulated with anti-CD3 antibody alone (Biological Example 2); format: cell-based, human; conditions: Homo sapiens, T-cell; 1 μM Cbl-b inhibitor; fold change over baseline (anti-CD3/anti-CD28 stimulated T-cells without inhibitor); read-out: IL-2 secretion Anti-CD3 stimulation
T-cell [4] = assay: CD25 cell surface staining on T-cells co-stimulated with anti-CD3 and anti-CD28 antibody (Biological Example 2); format: cell-based, human; conditions: Homo sapiens, T-cell, fold change over baseline (anti-CD3/anti-CD28 stimulated T-cells without inhibitor), read-out: CD25 staining Anti-CD3/Anti-CD28 stimulation; for fold induction at 0.3 µM: 0.3 μM Cbl-b inhibitor; for fold induction at 1 µM: 1 μM Cbl-b inhibitor
Outline: as §1

T-cell [5] = assay: CD25 cell surface staining on T-cells stimulated with anti-CD3 antibody alone (Biological Example 2); format: cell-based, human; conditions: Homo sapiens, T-cell; 1 μM Cbl-b inhibitor; fold change over baseline (anti-CD3/anti-CD28 stimulated T-cells without inhibitor); read-out: CD25 staining Anti-CD3 stimulation
Cbl-b [6] = target: T1, Cbl-b; assay: Cbl-b activity assay (Cbl-b inhibition assay), TR-FRET of Cbl-b interaction with UbcH5B-Ub; format: biochemical; conditions: assay buffer with 100 mM NaCl, 60 nM Src kinase; read-out: Cbl-b activity IC50
Outline: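 UbcH5B (C85K) conjugated to N-terminally Bodipy-Fluorescein-labeled ubiquitin served as the fluorescent partner. After compound preincubation, Src kinase (60 nM) with 1 mM ATP and 5 mM MgCl2 (final) was added for 1.5 h, followed by a further 1 h incubation. Some values were obtained with 50 mM NaCl and 30 nM Src.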

T1 sequence (Q13191 36-427): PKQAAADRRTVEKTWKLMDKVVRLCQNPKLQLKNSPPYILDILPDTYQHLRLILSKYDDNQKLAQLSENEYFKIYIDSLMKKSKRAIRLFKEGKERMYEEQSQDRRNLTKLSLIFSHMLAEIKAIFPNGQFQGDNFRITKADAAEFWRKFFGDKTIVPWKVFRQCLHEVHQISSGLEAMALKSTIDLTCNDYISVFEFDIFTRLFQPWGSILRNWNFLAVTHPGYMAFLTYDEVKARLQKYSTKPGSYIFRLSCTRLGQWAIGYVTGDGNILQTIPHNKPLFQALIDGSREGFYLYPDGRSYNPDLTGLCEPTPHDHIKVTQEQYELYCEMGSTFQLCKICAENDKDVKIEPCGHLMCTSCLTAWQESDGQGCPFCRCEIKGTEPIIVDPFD

Compound | IC50 (Cbl-b [1]) | fold induction at 0.3 µM (T-cell [2]) | fold induction at 1 µM (T-cell [2]) | fold induction at 1 µM (T-cell [3]) | fold induction at 0.3 µM (T-cell [4]) | fold induction at 1 µM (T-cell [4]) | fold induction at 1 µM (T-cell [5]) | IC50 (Cbl-b [6])
Cn1cnnc1CC1(c2cccc(N3Cc4c(cc(CN5CCC(C(F)F)CC5)cc4C(F)(F)F)C3=O)c2)COC1 [Example 643, 6-((4-(difluoromethyl)piperidin-1-yl)methyl)-2-(3-(3-((4-methyl-4H-1,2,4-triazol-3-yl)methyl)oxetan-3-yl)phenyl)-4-(trifluoromethyl)isoindolin-1-one] | ≤ 100 nM | 5 to 7.5 | > 7.5 | 0.151 to 0.2 | 1.31 to 1.5 | 1.31 to 1.5 | > 1 | < 100 nM
Cn1cnnc1CC1(c2cccc(N3Cc4c(cc(CN5CCC6CC6C5)cc4C(F)(F)F)C3=O)c2)COC1 (stereo not shown) [Example 646, 6-((3-azabicyclo[4.1.0]heptan-3-yl)methyl)-2-(3-(3-((4-methyl-4H-1,2,4-triazol-3-yl)methyl)oxetan-3-yl)phenyl)-4-(trifluoromethyl)isoindolin-1-one] | ≤ 100 nM | > 7.5 | > 7.5 | > 0.201 | 1.31 to 1.5 | 1.31 to 1.5 | > 1 | < 100 nM
Cc1nc2c(o1)CCN(Cc1cc3c(c(C(F)(F)F)c1)CN(c1cccc(C4(Cc5nncn5C)COC4)c1)C3=O)C2 [Example 649, 2-(3-(3-((4-methyl-4H-1,2,4-triazol-3-yl)methyl)oxetan-3-yl)phenyl)-6-((2-methyl-6,7-dihydrooxazolo[4,5-c]pyridin-5(4H)-yl)methyl)-4-(trifluoromethyl)isoindolin-1-one] | ≤ 100 nM | 5 to 7.5 | > 7.5 | > 0.201 | 1.01 to 1.3 | 1.31 to 1.5 | > 1 | < 100 nM
Cn1cnnc1CC1(c2cccc(N3Cc4c(cc(CN5CCc6ccccc6C5)cc4C(F)(F)F)C3=O)c2)COC1 [Example 650, 6-((3,4-dihydroisoquinolin-2(1H)-yl)methyl)-2-(3-(3-((4-methyl-4H-1,2,4-triazol-3-yl)methyl)oxetan-3-yl)phenyl)-4-(trifluoromethyl)isoindolin-1-one] | ≤ 100 nM | 5 to 7.5 | > 7.5 | > 0.201 | 1.01 to 1.3 | 1.31 to 1.5 | > 1 | < 100 nM
Cn1cnnc1CC1(c2cccc(N3Cc4c(cc(CN5CCCc6c5cnn6C)cc4C(F)(F)F)C3=O)c2)COC1 [Example 651] | ≤ 100 nM | 5 to 7.5 | > 7.5 | > 0.201 | 1.01 to 1.3 | 1.01 to 1.3 | > 1 | < 100 nM
Cn1cnnc1CC1(c2cccc(N3Cc4c(cc(CN5Cc6cccc(F)c6C5)cc4C(F)(F)F)C3=O)c2)COC1 [Example 653, 6-((4-fluoroisoindolin-2-yl)methyl)-2-(3-(3-((4-methyl-4H-1,2,4-triazol-3-yl)methyl)oxetan-3-yl)phenyl)-4-(trifluoromethyl)isoindolin-1-one] | ≤ 100 nM | 2.51 to 5 | > 7.5 | > 0.201 | 1.31 to 1.5 | 1.31 to 1.5 | > 1 | < 100 nM
Cn1cnnc1CC1(c2cccc(N3Cc4c(cc(CN5Cc6ccccc6C5)cc4C(F)(F)F)C3=O)c2)COC1 [Example 654, 6-(isoindolin-2-ylmethyl)-2-(3-(3-((4-methyl-4H-1,2,4-triazol-3-yl)methyl)oxetan-3-yl)phenyl)-4-(trifluoromethyl)isoindolin-1-one] | ≤ 100 nM | 5 to 7.5 | > 7.5 | > 0.201 | 1.31 to 1.5 | 1.31 to 1.5 | > 1 | < 100 nM
Cn1cnnc1CC1(c2cccc(N3Cc4c(cc(CN5Cc6ccc(F)cc6C5)cc4C(F)(F)F)C3=O)c2)COC1 [Example 655, 6-((5-fluoroisoindolin-2-yl)methyl)-2-(3-(3-((4-methyl-4H-1,2,4-triazol-3-yl)methyl)oxetan-3-yl)phenyl)-4-(trifluoromethyl)isoindolin-1-one] | ≤ 100 nM | 5 to 7.5 | > 7.5 | > 0.201 | 1.31 to 1.5 | 1.31 to 1.5 | > 1 | < 100 nM
COc1ccc2c(c1)CN(Cc1cc3c(c(C(F)(F)F)c1)CN(c1cccc(C4(Cc5nncn5C)COC4)c1)C3=O)C2 [Example 656, 6-((5-methoxyisoindolin-2-yl)methyl)-2-(3-(3-((4-methyl-4H-1,2,4-triazol-3-yl)methyl)oxetan-3-yl)phenyl)-4-(trifluoromethyl)isoindolin-1-one] | ≤ 100 nM | > 7.5 | > 7.5 | > 0.201 | 1.31 to 1.5 | 1.31 to 1.5 | > 1 | < 100 nM
Cn1cnnc1CC1(c2cccc(N3Cc4c(cc(CN5Cc6cccnc6C5)cc4C(F)(F)F)C3=O)c2)COC1 [Example 660, 6-((5,7-dihydro-6H-pyrrolo[3,4-b]pyridin-6-yl)methyl)-2-(3-(3-((4-methyl-4H-1,2,4-triazol-3-yl)methyl)oxetan-3-yl)phenyl)-4-(trifluoromethyl)isoindolin-1-one] | ≤ 100 nM | 2.51 to 5 | > 7.5 | > 0.201 | 1.31 to 1.5 | 1.31 to 1.5 | > 1 | < 100 nM
Cn1cnnc1CC1(c2cccc(N3Cc4c(cc(CN5CC[C@H](c6ccccc6)C5)cc4C(F)(F)F)C3=O)c2)COC1 [Example 662a, (R)-2-(3-(3-((4-methyl-4H-1,2,4-triazol-3-yl)methyl)oxetan-3-yl)phenyl)-6-((3-phenylpyrrolidin-1-yl)methyl)-4-(trifluoromethyl)isoindolin-1-one] | ≤ 100 nM | 5 to 7.5 | > 7.5 | > 0.201 | 1.01 to 1.3 | 1.01 to 1.3 | 0.801 to 1 | < 100 nM
C[C@H]1CN(Cc2cc3c(c(C(F)(F)F)c2)CN(c2cccc(C4(Cc5nncn5C)COC4)c2)C3=O)CCO1 [Example 663a, (S)-2-(3-(3-((4-methyl-4H-1,2,4-triazol-3-yl)methyl)oxetan-3-yl)phenyl)-6-((2-methylmorpholino)methyl)-4-(trifluoromethyl)isoindolin-1-one] | ≤ 100 nM | 5 to 7.5 | > 7.5 | > 0.201 | 1.31 to 1.5 | 1.31 to 1.5 | > 1 | < 100 nM
C[C@H](c1cc2c(c(C(F)(F)F)c1)CN(c1cccc(C3(Cc4nncn4C)COC3)c1)C2=O)N1CC(F)C1 [Example 668a, (R)-6-(1-(3-fluoroazetidin-1-yl)ethyl)-2-(3-(3-((4-methyl-4H-1,2,4-triazol-3-yl)methyl)oxetan-3-yl)phenyl)-4-(trifluoromethyl)isoindolin-1-one] | ≤ 100 nM | 2.51 to 5 | 5 to 7.5 | 0.101 to 0.15 | 1.31 to 1.5 | 1.51 to 1.75 | > 1 | < 100 nM
C[C@@H](c1cc2c(c(C(F)(F)F)c1)CN(c1cccc(C3(Cc4nncn4C)COC3)c1)C2=O)N1CC(F)C1 [Example 668b, (S)-6-(1-(3-fluoroazetidin-1-yl)ethyl)-2-(3-(3-((4-methyl-4H-1,2,4-triazol-3-yl)methyl)oxetan-3-yl)phenyl)-4-(trifluoromethyl)isoindolin-1-one] | ≤ 100 nM | 5 to 7.5 | > 7.5 | 0.151 to 0.2 | 1.31 to 1.5 | 1.51 to 1.75 | > 1 | < 100 nM
